These results are taken from patent US20240360178A1, “MACROCYCLIC IMMUNOMODULATORS” (Bristol-Myers Squibb Company, priority 2021, published 2024).

The test addresses T1, human PD-1 (Jurkat-PD-1 cells) / PE-labeled human PD-L1-Ig (Homo sapiens, UniProt Q15116).
T1 construct: expressed in transfected cells; host or cells: Jurkat cell line over-expressing human PD-1
In words: Jurkat-PD-1 Cell Binding High-Content Screening Assay (CBA); Jurkat hPD1-PDL1 assay. The settings on record: Jurkat cell line over-expressing human PD-1; PE-labeled PD-L1-Ig 20 nM final; compound incubated 2 hours at 37° C.; read-out: Jurkat HPD1-PDL1 IC50. The gist of the method:
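Read-out is high-content imaging of PE fluorescence on PD-1-over-expressing Jurkat cells. Cells are first exposed to compound for 2 hours at 37° C in serum-containing DMEM, after which PE-labeled PD-L1-Ig is added at 20 nM final.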

Structures are written as SMILES. pIC50: −log10 of the molar value. Positions of bridges follow the written chain, without caps; N, C: chain ends. Non-standard residues stand in square brackets, D forms with d. Residues, ends and D or L forms follow the SMILES beside them. ξ: configuration not given here. *: point of attachment. Bip(2'-Me) = Cc1ccccc1-c1ccc(C[C@H](N)C(=O)O)cc1; Bip = N[C@@H](Cc1ccc(-c2ccccc2)cc1)C(=O)O; Phe(4-NH2) = Nc1ccc(C[C@H](N)C(=O)O)cc1; NMeF = CN[C@@H](Cc1ccccc1)C(=O)O; 4Pal = N[C@@H](Cc1ccncc1)C(=O)O; Cha = N[C@@H](CC1CCCCC1)C(=O)O; Cit = NC(=O)NCCC[C@H](N)C(=O)O; Thr(3ξ) = CC(O)[C@H](N)C(=O)O; Carboxymethyl = O=C(O)C*; NMeA = CN[C@@H](C)C(=O)O; Orn = NCCC[C@H](N)C(=O)O; dNMeA = CN[C@H](C)C(=O)O; Dab = NCC[C@H](N)C(=O)O; Dap = NC[C@H](N)C(=O)O; ξV = CC(C)C(N)C(=O)O; ξP = O=C(O)C1CCCN1; Sar = CNCC(=O)O

T1 sequence (Q15116 25-288): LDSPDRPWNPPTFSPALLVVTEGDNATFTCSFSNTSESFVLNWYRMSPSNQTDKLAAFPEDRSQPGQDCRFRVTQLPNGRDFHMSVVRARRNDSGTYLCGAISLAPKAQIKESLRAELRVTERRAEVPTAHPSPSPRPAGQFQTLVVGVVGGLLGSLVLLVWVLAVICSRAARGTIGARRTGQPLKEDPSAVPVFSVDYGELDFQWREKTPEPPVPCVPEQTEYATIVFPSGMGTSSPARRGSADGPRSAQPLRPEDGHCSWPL

A word on the pIC50: it is the negative decadic logarithm of the IC50, by convention in mol/L. In the case of `CC(C)C[C@@H]1NC(=O)[C@H](CCN)NC(=O)[C@H](Cc2ccccc2)N(C)C(=O)[C@H](C)N(C)C(=O)[C@H](CCCNC(=N)N)NC(=O)[C@H](Cc2ccc(-c3ccccc3)cc2)NC(=O)[C@H](C(C)C)NC(=O)[C@H](Cc2c[nH]c3ccccc23)NC(=O)[C@H](CC(=O)O)NC(=O)[C@H](Cc2ccc(O)cc2)NC(=O)[C@H](CC(N)=O)NC(=O)CSC[C@@H](C(=O)N[C@@H](C)C(N)=O)NC(=O)[C@H]([C@@H](C)O)NC(=O)[C@H](C(C)C)NC1=O` [Example 1320] ({CH2CO}-NYDWV[Bip]R[NMeA][NMeF][Dab]LVTCA-NH2; thioether N-14), the pIC50 was 6.82.

Turning to `CC(C)C[C@@H]1NC(=O)[C@H](Cc2c[nH]c3ccccc23)NC(=O)[C@H](CC(=O)O)NC(=O)[C@H](Cc2ccc(N)cc2)NC(=O)[C@H](Cc2ccccc2)NC(=O)CSC[C@@H](C(=O)N[C@@H](C)C(N)=O)NC(=O)[C@H](CO)NC(=O)[C@H](C(C)C)NC(=O)[C@H](CC(C)C)NC(=O)[C@H](CC(N)=O)NC(=O)CN(C)C(=O)[C@H](C)N(C)C(=O)[C@H](C(C)C)NC(=O)[C@H](Cc2ccc(-c3ccccc3)cc2)NC1=O` [Example 1076] ({CH2CO}-F[Phe(4-NH2)]DWL[Bip]V[NMeA][Sar]NLVSCA-NH2; thioether N-14), the pIC50 is 6.68.

Take `CC(C)C[C@@H]1NC(=O)[C@H](CCCNC(=N)N)NC(=O)C2CCCN2C(=O)[C@H](C)N(C)C(=O)[C@H](CCCNC(=N)N)NC(=O)[C@H](Cc2ccc(-c3ccccc3)cc2)NC(=O)[C@H](C(C)C)NC(=O)[C@H](Cc2c[nH]c3ccccc23)NC(=O)[C@H](CC(=O)O)NC(=O)[C@H](Cc2ccc(O)cc2)NC(=O)[C@H](Cc2ccccc2)NC(=O)CSC[C@@H](C(=O)NCC(N)=O)NC(=O)[C@H](CO)NC(=O)[C@H](C(C)C)NC1=O` (stereo partly drawn) [Example 1282] ({CH2CO}-FYDWV[Bip]R[NMeA][ξP]RLVSCG-NH2; thioether N-14): the pIC50 is 6.54.

As for `CC(C)C[C@@H]1NC(=O)[C@H](Cc2c[nH]c3ccccc23)NC(=O)[C@H](CC(=O)O)NC(=O)[C@H](Cc2ccc(O)cc2)NC(=O)[C@H](Cc2ccccc2)NC(=O)CSC[C@@H](C(=O)N[C@@H](CN)C(N)=O)NC(=O)[C@H](CO)NC(=O)[C@H](C(C)C)NC(=O)[C@H](CC(C)C)NC(=O)[C@H](CC(N)=O)NC(=O)CN(C)C(=O)[C@H](C)N(C)C(=O)[C@H](C(C)C)NC(=O)[C@H](Cc2ccc(-c3ccccc3)cc2)NC1=O` [Example 1168] ({CH2CO}-FYDWL[Bip]V[NMeA][Sar]NLVSC[Dap]-NH2; thioether N-14), the pIC50 is 6.03.

`CC(C)C[C@@H]1NC(=O)[C@H](CCN)NC(=O)[C@H](Cc2ccccc2)N(C)C(=O)[C@H](C)N(C)C(=O)[C@H](CCCNC(=N)N)NC(=O)[C@H](Cc2ccc(-c3ccccc3)cc2)NC(=O)[C@H](C(C)C)NC(=O)[C@H](Cc2c[nH]c3ccccc23)NC(=O)[C@H](CC(=O)O)NC(=O)[C@H](Cc2ccc(O)cc2)NC(=O)[C@H](CCC(N)=O)NC(=O)CSC[C@@H](C(=O)NCC(N)=O)NC(=O)[C@H](CO)NC(=O)[C@H](C(C)C)NC1=O` [Example 1309] ({CH2CO}-QYDWV[Bip]R[NMeA][NMeF][Dab]LVSCG-NH2; thioether N-14): the pIC50 was 6.47.

As to `Cc1ccccc1-c1ccc(C[C@@H]2NC(=O)[C@H](CC(C)C)NC(=O)[C@H](Cc3c[nH]c4ccccc34)NC(=O)[C@H](CC(=O)O)NC(=O)[C@H](Cc3ccc(O)cc3)NC(=O)[C@H](Cc3ccccc3)NC(=O)CSC[C@@H](C(=O)N[C@@H](C)C(N)=O)NC(=O)[C@H](CO)NC(=O)[C@H](C(C)C)NC(=O)[C@H](CC(C)C)NC(=O)[C@H](CC(N)=O)NC(=O)CN(C)C(=O)[C@H](C)N(C)C(=O)[C@H](C(C)C)NC2=O)cc1` [Example 1125] ({CH2CO}-FYDWL[Bip(2'-Me)]V[NMeA][Sar]NLVSCA-NH2; thioether N-14), the pIC50 was 6.33.

With `CC(C)C[C@@H]1NC(=O)[C@H](Cc2c[nH]c3ccccc23)NC(=O)[C@H](CC(=O)O)NC(=O)[C@H](Cc2ccc(O)cc2)NC(=O)[C@H](Cc2ccccc2)NC(=O)CSC[C@@H](C(=O)NCC(N)=O)NC(=O)[C@H](CO)NC(=O)[C@H](C(C)C)NC(=O)[C@H](CC(C)C)NC(=O)[C@H](CCN)NC(=O)[C@H]2CCCN2C(=O)[C@H](CCN)NC(=O)[C@H](C(C)C)NC(=O)[C@H](Cc2ccc(-c3ccccc3)cc2)NC1=O` [Example 1417] ({CH2CO}-FYDWL[Bip]V[Dab][dP][Dab]LVSCG-NH2; thioether N-14), the pIC50 was 7.15.

For `CC(C)C[C@@H]1NC(=O)[C@H](CCCNC(=N)N)NC(=O)[C@H](Cc2ccccc2)N(C)C(=O)[C@H](C)N(C)C(=O)[C@H](CCCNC(N)=O)NC(=O)[C@H](Cc2ccc(-c3ccccc3)cc2)NC(=O)[C@H](C(C)C)NC(=O)[C@H](Cc2c[nH]c3ccccc23)NC(=O)[C@H](CC(=O)O)NC(=O)[C@H](Cc2ccc(O)cc2)NC(=O)[C@H](Cc2ccccc2)NC(=O)CSC[C@@H](C(=O)NCC(N)=O)NC(=O)[C@H](CO)NC(=O)[C@H](C(C)C)NC1=O` [Example 1245] ({CH2CO}-FYDWV[Bip][Cit][NMeA][NMeF]RLVSCG-NH2; thioether N-14), the pIC50 is 6.96.

As to `CC(C)C[C@@H]1NC(=O)[C@H](CCCCN)NC(=O)[C@H](Cc2ccccc2)N(C)C(=O)[C@H](C)N(C)C(=O)[C@H](CCCNC(=N)N)NC(=O)[C@H](Cc2ccc(-c3ccccc3)cc2)NC(=O)[C@H](C(C)C)NC(=O)[C@H](Cc2c[nH]c3ccccc23)NC(=O)[C@H](CC(=O)O)NC(=O)[C@H](Cc2ccc(O)cc2)NC(=O)[C@H](CCC(N)=O)NC(=O)CSC[C@@H](C(=O)NCC(N)=O)NC(=O)[C@H](CO)NC(=O)[C@H](C(C)C)NC1=O` [Example 1313] ({CH2CO}-QYDWV[Bip]R[NMeA][NMeF]KLVSCG-NH2; thioether N-14), the pIC50 was 6.62.

Take `CC(C)C[C@@H]1NC(=O)[C@H](CCN)NC(=O)[C@H](Cc2ccccc2)N(C)C(=O)[C@H](C)N(C)C(=O)[C@H](CCC(=O)O)NC(=O)[C@H](Cc2ccc(-c3ccccc3)cc2)NC(=O)[C@H](C(C)C)NC(=O)[C@H](Cc2c[nH]c3ccccc23)NC(=O)[C@H](CC(=O)O)NC(=O)[C@H](Cc2ccc(O)cc2)NC(=O)[C@H](Cc2ccccc2)NC(=O)CSC[C@@H](C(=O)N[C@@H](CCC(=O)O)C(N)=O)NC(=O)[C@H]([C@@H](C)O)NC(=O)[C@H](C(C)C)NC1=O` [Example 1343] ({CH2CO}-FYDWV[Bip]E[NMeA][NMeF][Dab]LVTCE-NH2; thioether N-14): the pIC50 was 6.43.

On to `CC(C)C[C@@H]1NC(=O)[C@H](CC(C)C)NC(=O)[C@H](CCCNC(=N)N)NC(=O)[C@H](Cc2ccccc2)N(C)C(=O)[C@H](C)N(C)C(=O)[C@H](CCCNC(=N)N)NC(=O)[C@H](Cc2ccc(-c3ccccc3)cc2)NC(=O)[C@H](C(C)C)NC(=O)[C@H](Cc2c[nH]c3ccccc23)NC(=O)[C@H](CC(=O)O)NC(=O)[C@H](Cc2ccc(O)cc2)NC(=O)[C@H](Cc2ccccc2)NC(=O)CSC[C@@H](C(=O)NCC(N)=O)NC(=O)[C@H](CO)NC1=O` [Example 1325] ({CH2CO}-FYDWV[Bip]R[NMeA][NMeF]RLLSCG-NH2; thioether N-14), for which the pIC50 was 6.23.

In the case of `CC(C)C1NC(=O)[C@H](Cc2c[nH]c3ccccc23)NC(=O)[C@H](CC(=O)O)NC(=O)[C@H](Cc2ccc(OCC(=O)O)cc2)NC(=O)[C@H](CN)NC(=O)CSC[C@@H](C(=O)N[C@@H](C)C(N)=O)NC(=O)[C@H]([C@@H](C)O)NC(=O)[C@H](C(C)C)NC(=O)[C@H](CC2CCCCC2)NC(=O)[C@H](CCN)NC(=O)[C@H](Cc2ccccc2)N(C)C(=O)[C@H](CCCN)NC(=O)[C@H](CCC(=O)O)NC(=O)[C@H](Cc2ccc(-c3ccccc3)cc2)NC1=O` (stereo partly drawn) [Example 1442] ({CH2CO}-[Dap]Y(Carboxymethyl)DW[ξV][Bip]E[Orn][NMeF][Dab][Cha]VTCA-NH2; thioether N-14), the pIC50 is 7.15.

Consider `CC(C)C[C@@H]1NC(=O)CSC[C@@H](C(=O)NCC(N)=O)NC(=O)[C@H]([C@@H](C)O)NC(=O)[C@H](C(C)C)NC(=O)[C@H](CC(C)C)NC(=O)[C@H](CCCNC(=N)N)NC(=O)[C@H](Cc2ccccc2)N(C)C(=O)[C@H](C)N(C)C(=O)[C@H](CCCNC(=N)N)NC(=O)[C@H](Cc2ccc(-c3ccccc3)cc2)NC(=O)[C@H](C(C)C)NC(=O)[C@H](Cc2c[nH]c3ccccc23)NC(=O)[C@H](CC(=O)O)NC(=O)[C@H](Cc2ccc(O)cc2)NC1=O` [Example 1312] ({CH2CO}-LYDWV[Bip]R[NMeA][NMeF]RLVTCG-NH2; thioether N-14), for which the pIC50 is 6.12.

As to `CC(C)[C@@H]1NC(=O)[C@H](Cc2c[nH]c3ccccc23)NC(=O)[C@H](CC(=O)O)NC(=O)[C@H](Cc2ccncc2)NC(=O)[C@H](CN)NC(=O)CSC[C@@H](C(=O)NCC(N)=O)NC(=O)[C@H](C(C)O)NC(=O)[C@H](C(C)C)NC(=O)[C@H](CC2CCCCC2)NC(=O)[C@H](CCN)NC(=O)[C@@H](C)N(C)C(=O)[C@H](CCCN)NC(=O)[C@H](CN)NC(=O)[C@H](Cc2ccc(-c3ccccc3)cc2)NC1=O` (stereo partly drawn) [Example 1434] ({CH2CO}-[Dap][4Pal]DWV[Bip][Dap][Orn][dNMeA][Dab][Cha]V[Thr(3ξ)]CG-NH2; thioether N-14), the pIC50 was 7.00.

Consider `CC(C)C[C@@H]1NC(=O)[C@H](Cc2c[nH]c3ccccc23)NC(=O)[C@H](CC(=O)O)NC(=O)[C@H](Cc2ccc(O)cc2)NC(=O)[C@H](Cc2ccccc2)NC(=O)CSC[C@@H](C(=O)NCC(N)=O)NC(=O)[C@H](C(C)O)NC(=O)[C@H](C(C)C)NC(=O)[C@H](CC(C)C)NC(=O)[C@H](CC(N)=O)NC(=O)CN(C)C(=O)[C@H](C)N(C)C(=O)[C@H](C(C)C)NC(=O)[C@H](Cc2ccc(-c3ccccc3)cc2)NC1=O` (stereo partly drawn) [Example 1109] ({CH2CO}-FYDWL[Bip]V[NMeA][Sar]NLV[Thr(3ξ)]CG-NH2; thioether N-14), for which the negative-log IC50 (pIC50) was 6.46.
